# According to the RepoRT retention time repository:
# Test: Agilent ZORBAX 300 SB-C18, 150 × 1 mm, 3.5 µm; A: water + 0.01% heptafluorobutyric acid; B: acetonitrile + 0.01% heptafluorobutyric acid; gradient (min/%B) 0/0 100/90
# Conditions: stereoisomer not certain
row,LC retention time,SMILES
1,11.5 min,CCN(CC)c1ccc(C=Nc2ccccc2)c(O)c1
2,10.3 min,COc1ccc(NC(=O)c2ccc(N3C(=O)CCC3=O)cc2)cc1
3,12.9 min,O=C(C=Cc1ccccc1)c1ccc(O)cc1
4,7.38 min,O=C(O)CNC(=O)c1ccccc1
5,17.1 min,Cc1ccc(NC(=O)COc2ccc(-c3ccccc3)cc2)cc1
6,18.5 min,Cc1ccsc1C=CC(=O)c1ccc2ccccc2c1
7,9.8 min,CNC(=O)c1cc2c(n(-c3ccccc3)c1=O)CCCC2=O
8,13.2 min,CC(=O)c1ccc(-n2cccc2)cc1
9,10.1 min,CCN(CC)CCNc1cccc2ccccc12
10,7.05 min,NCc1ccc2ncccc2c1
11,10.1 min,Cc1cccc2c1N(C)C(=O)C2=O
12,14.8 min,CC(C)(C)c1ccc(C(=O)NCc2ccccc2)o1
13,6.88 min,Cc1cncc(C)c1
14,15.4 min,O=C(c1cccc(C(=O)N(Cc2ccccc2)c2ccccn2)c1)N(Cc1ccccc1)c1ccccn1
15,17.5 min,Cc1ccc2cccc(SC(c3ccccc3)c3ccccc3)c2n1
16,9.02 min,CN(C(=O)CCCN1C(=O)c2ccccc2C1=O)C1CC(C)(C)N(C)C(C)(C)C1
17,10.5 min,Cc1cc(C)nc(N=C(N)Nc2cccc3ccccc23)n1
18,7.28 min,CC(=O)NCC(NC(C)=O)C(C)(C)C (stereo unspecified)
19,7.28 min,O=C(Nc1cccnc1)c1cnccn1
20,6.35 min,CC(=O)CNC(C)(C)C
21,6.92 min,CNCCc1ccccn1
22,7.74 min,O=C(O)CNC(=O)Nc1ccccc1

row,LC retention time,SMILES
1,10.2 min,CCN(CC)c1nc(-c2ccncc2)nc2ccccc12
2,8.68 min,CCCCCNC=O
3,11.3 min,O=C(O)CCN1CCCc2ccccc21
4,8.4 min,CC(C)(C)NCC(O)COc1cccc2c1CCC(=O)N2 (stereo unspecified)
5,16.5 min,Cc1ccc(Nc2ccccc2)cc1
6,1.22 min,Nc1c(S(=O)(=O)O)[nH]c(=O)[nH]c1=O
7,5.92 min,CC(=O)CNC(C)(C)C(C)=O
8,2.98 min,Nc1ccc[nH]c1=O
9,7.63 min,Nc1ccc(N2CCCC2=O)cc1N1CCCC1=O
10,5.38 min,Cc1c(N)cccc1C(N)=O
11,9.85 min,Cc1cnc2c(ccc3c(C)c(C)cnc32)c1C
12,7.19 min,CC(=O)NC(C)c1ccc(O)cc1 (stereo unspecified)
13,13.4 min,CCOC(=O)c1c(-c2ccccc2)c[nH]c1C
14,6.77 min,CCCNC1CCN(C(C)=O)CC1
15,12.1 min,S=c1[nH]c2ccccc2c2c1CCC2
16,13.7 min,CC(C)(C)c1ccc(C(CC(=O)O)NC(=O)c2ccccc2)cc1 (stereo unspecified)
17,13.8 min,CCCCCCCCCC(N)=O
18,9.96 min,Nc1ccc(C=C(C(=O)O)c2ccccc2)cc1
19,6.62 min,CCc1ncc(C)[nH]1
20,11.3 min,C=CCC1(Nc2ccccc2)CCCCC1
21,8.33 min,Cc1cc2cc(N)ccc2n1C
22,11.8 min,CCC(=O)c1ccc2c(c1)N(CC(C)N(C)C)c1ccccc1S2 (stereo unspecified)

row,LC retention time,SMILES
1,6.51 min,NC1CCCC1
2,7.05 min,CCN(CC)CCCC(C)N (stereo unspecified)
3,12.2 min,CN(C)C=CC(=O)c1ccc2ccccc2c1
4,7.35 min,CN(C)CCCNCCCN
5,10.6 min,Nc1cccc(C(=O)O)c1N
6,10.8 min,COc1cc(C(=O)Nc2ccc(N3CCCC3=O)cc2)cc(OC)c1OC
7,6.32 min,N=C(N=C(N)N)N1CCOCC1
8,12.1 min,O=C(NC(c1ccccc1)c1ccccc1)c1cccnc1
9,7.53 min,CC(=O)N1c2ccc(N)cc2CC1C (stereo unspecified)
10,12.3 min,Cc1cccc(NC(=S)NNC(=O)c2cccc(C)c2)c1
11,9.02 min,CC(C)(C)Nc1ncnc2ccccc12
12,11.1 min,CC(C)(C)c1ccc(C(=O)N2CCN(Cc3ccccc3)CC2)cc1
13,11.1 min,O=c1cnc(-c2ccccc2)c(-c2ccccc2)[nH]1
14,10.5 min,c1ccc(-n2ncc(-c3nn[nH]n3)n2)cc1
15,7.95 min,CCCOC(=O)C1CCCCN1 (stereo unspecified)
16,7.38 min,N=C(N)N=Nc1ccc(O)cc1
17,10.2 min,Cn1cccc1C=NNC(=O)CCCC(=O)NN=Cc1cccn1C
18,7.87 min,Cc1cc(C)nc(NC(N)=NCc2cccnc2)n1
19,11.4 min,Cn1c(C(=O)O)cc2ccccc21
20,11.2 min,CN(C)CCCOc1nn(Cc2ccccc2)c2ccccc12
21,13.1 min,c1ccc(-c2ccc3ccccc3n2)cc1
22,5.4 min,Cn1c(=O)[nH]cc(CC(=O)O)c1=O

row,LC retention time,SMILES
1,7.75 min,CCCC(=O)Nc1ccc(N)cc1
2,10.9 min,Cc1ccc(NC(=O)c2ccc(N)cc2)cc1
3,13.2 min,Cc1ccc(NC(=O)c2c(C)[nH]c(C)c2C)c(C)c1
4,10.1 min,CC1(C)Cc2ccccc2C(C2=C(O)CCCC2=O)=N1
5,10.4 min,CC(=O)NCCOc1ccc(C)cc1
6,6.36 min,Cn1c(N)nc2nc[nH]c2c1=O
7,8.86 min,CNC(=S)N1CCCCC1
8,9.09 min,CCC(NC)c1ccccc1OC (stereo unspecified)
9,8.91 min,CN(C)C1C(=O)C(C(=O)NCN2CCCC2)C(=O)C2(O)C(=O)C3C(=O)c4c(O)cccc4C(C)(O)C3CC12 (stereo unspecified)
10,9.72 min,O=C(O)c1c(-c2ccccc2)c(-c2ccccc2)n[nH]c1=O
11,6.08 min,Cn1cnnc1-c1ccncc1
12,2.62 min,O=c1[nH]c2cc[nH]c(=O)c2[nH]1
13,1.6 min,NC(=O)c1cn(CC(=O)O)c(=O)[nH]c1=O
14,6.85 min,Nc1cccc(C2=NCCN2)c1
15,14.2 min,Cc1ccc(Nc2cc(=O)oc3ccccc23)cc1C
16,8.74 min,CC(=NN=C(C)c1cccc(N)c1)c1cccc(N)c1
17,14.4 min,Cc1cc(C)c2c(=O)n(CC(=O)NCCC(C)C)c(=O)n(-c3ccccc3)c2n1
18,3.29 min,CN1N=C(C(=O)O)CCC1=O
19,8.73 min,c1ccc(C2CN3CCSC3=N2)cc1 (stereo unspecified)
20,8.72 min,O=C1NCC2(CCN(CCc3ccccc3)CC2)O1
21,14.7 min,COc1cc(C=CC(=O)c2ccc3c(c2)OCO3)cc(OC)c1OC

row,SMILES,LC retention time
1,COC(=O)CCNC(C)Cc1ccccc1 (stereo unspecified),8.9 min
2,O=P(O)(O)CN(CP(=O)(O)O)CP(=O)(O)O,1.08 min
3,C[N+]1(C)CCCCC1,5.95 min
4,COc1ccc2c3c1OC1C(=O)CCC4C(C2)N(C)CCC314 (stereo unspecified),8.61 min
5,O=C(O)c1ccc(=O)[nH]c1,4.42 min
6,CCCCCCCCCN(C)C,11.1 min
7,O=C1CCC2(O)C3Cc4ccc(O)c5c4C2(CCN3CC2CC2)C1O5 (stereo unspecified),8.38 min
8,Cc1[nH]c2c(C)ccc(C)c2c1CCN,9.21 min
9,CN(C)CCCN1CCC(=O)C2CCCCC21 (stereo unspecified),7.52 min
